Source: ChEMBL document CHEMBL3886751, “Disubstituted beta-lactones as inhibitors of N-acylethanolamine acid amidase (NAAA)” (2016)

Molecular target: T1, N-acylethanolamine-hydrolyzing acid amidase (Homo sapiens, UniProt Q02083)
T1 sequence (Q02083 whole entry): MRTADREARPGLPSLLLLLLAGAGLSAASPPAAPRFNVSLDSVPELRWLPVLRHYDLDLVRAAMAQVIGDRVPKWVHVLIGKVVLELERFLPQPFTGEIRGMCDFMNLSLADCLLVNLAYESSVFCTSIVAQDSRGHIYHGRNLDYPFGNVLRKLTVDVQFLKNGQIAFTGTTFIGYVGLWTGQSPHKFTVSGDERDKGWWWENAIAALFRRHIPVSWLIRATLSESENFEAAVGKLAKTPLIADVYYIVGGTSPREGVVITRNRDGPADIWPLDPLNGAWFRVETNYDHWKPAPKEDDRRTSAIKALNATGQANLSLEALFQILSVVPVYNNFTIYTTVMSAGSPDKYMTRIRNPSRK
Assay: Fluorogenic Assay: The assay was run in Optiplate 96-wells black plates, in a total reaction volume of 200 μL. NAAA protein preparation (4.0 μg) was pre-incubated for 10 min with various concentrations of test compounds or vehicle control (5% DMSO) in 100 mM citrate/phosphate buffer (pH 4.5) containing 3.0 mM DTT, 0.1% Triton X-100, 0.05% BSA, 150 mM NaCl. N-(4-methyl-2-oxo-chromen-7-yl)-hexadecanamide was used as a substrate (5.0 μM) and the reaction carried over for 30 min at 37° C. The samples were then read in a Perkin Elmer Envision plate reader using an excitation wavelength of 360 nm and emission 460 nm.

Going from `CC(C)[C@H]1OC(=O)[C@@H]1NC(=O)OCc1ccc(-c2ccccc2)cc1` (relative stereo) to `CC(C)[C@@H]1OC(=O)[C@@H]1NC(=O)OCc1ccc(-c2ccccc2)cc1` (relative stereo), the IC50 rises from 0.023 µM to 0.037 µM (1.6-fold).

Going from `CC(C)(C)[C@@H]1OC(=O)[C@@H]1NC(=O)OCc1ccc(-c2ccccc2)cc1` (relative stereo) to `CC(C)(C)[C@H]1OC(=O)[C@@H]1NC(=O)OCc1ccc(-c2ccccc2)cc1` (relative stereo), the IC50 falls from 0.897 µM to 0.465 µM (1.9-fold).

First: CC[C@H]1OC(=O)[C@@H]1NC(=O)OCc1ccc(-c2ccccc2)cc1 (relative stereo)
Second: CC[C@@H]1OC(=O)[C@@H]1NC(=O)OCc1ccc(-c2ccccc2)cc1 (relative stereo)
The IC50 of the first is 2.5-fold lower: 0.006 µM for the first, 0.015 µM for the second.

Molecular target: T1, N-acylethanolamine-hydrolyzing acid amidase
Assay: UPLC/MS Assay: NAAA protein preparation (10 ug) was pre-incubated with various concentrations of test compound or vehicle control in 100 mM NaH2PO4, 100 mM Tri Sodium Citrate Dehydrate, 0.1% Triton-X 100, 3 mM DTT, pH 4.5 for 30 min at 37° C. Duplicate samples were then incubated with 50 uM C17:1 10-cis-heptadecenoylethanolamide (Avanti Polar Lipids, Alabaster, Ala. USA) at 37° C. for 30 minutes. The reaction was terminated by the addition of 0.2 mL of cold methanol containing 1 nmol of heptadecanoic acid (NuChek Prep, Elysian, Minn. USA) as internal standard. Samples were then analyzed by UPLC/MS. Heptadecenoic and heptadecanoic acids were eluted on an Acquity UPLC BEH C18 column (50 mm length, 2.1 mm i.d., 1.7 um pore size, Waters) isocratically at 0.5 mL/min for 1.5 min with a solvent mixture of 95% methanol and 5% water, both containing 0.25% Acetic Acid and 5 mM Ammonium Acetate. The column temperature was 40° C. Electrospray ionization was in the negative mode, capillary voltage was 0.5 kV, […], desolvation temperature was 500° C. N2 was used as drying gas at a flow rate of 1000 L/hour and a temperature of 500° C. The [M-H]- ion was monitored in the selected-ion monitoring mode (m/z values: heptadecenoic acid 267.37, heptadecanoic acid 269.37). Calibration curves were generated using commercial heptadecenoic acid (NuCheck Prep). […]

`CC(OC(=O)N[C@H]1C(=O)O[C@H]1C)c1ccc(-c2ccccc2)cc1` (mixture of isomers) was tested, and the IC50 was 0.01 µM.

Molecular target: T2, N-acylethanolamine-hydrolyzing acid amidase (Rattus norvegicus, UniProt Q5KTC7)
T2 sequence (Q5KTC7 whole entry): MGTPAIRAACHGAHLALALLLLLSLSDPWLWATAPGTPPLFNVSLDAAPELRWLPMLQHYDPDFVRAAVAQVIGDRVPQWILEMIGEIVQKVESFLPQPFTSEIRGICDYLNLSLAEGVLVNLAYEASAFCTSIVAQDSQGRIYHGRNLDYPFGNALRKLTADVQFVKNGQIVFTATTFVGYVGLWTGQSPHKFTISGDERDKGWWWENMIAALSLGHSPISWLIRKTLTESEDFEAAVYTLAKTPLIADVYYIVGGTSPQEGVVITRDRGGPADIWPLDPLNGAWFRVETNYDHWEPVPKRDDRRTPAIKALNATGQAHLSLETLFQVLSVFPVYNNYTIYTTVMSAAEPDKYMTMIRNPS
Assay: Enzymatic Assay: Lysosomal NAAA protein preparation were obtained by homogenizing male Sprague-Dawley rat lungs (Charles River) in 20 mM Tris-HCl buffer pH 7.4 containing 0.32M sucrose. Samples were centrifuged at 800×g for 15 minutes at 4° C. Supernatants were then centrifuged at 12,000 g for 30 minutes at 4° C. Pellets were then resuspended in PBS pH 7.4 and subjected to a freeze/thaw cycle at −80° C. The suspension was finally centrifuged at 105,000×g for 1 hour at 4° C. The supernatant was then used in the enzymatic assay.

First: CC(OC(=O)N[C@H]1C(=O)O[C@H]1C)c1ccc(-c2ccccc2)cc1 (mixture of isomers)
Second: C[C@@H]1OC(=O)[C@@H]1NC(=O)OCc1ccc(-c2ccc(C(F)(F)F)cc2)cc1
The IC50 of the first is 2.1-fold higher: 0.05 µM for the first, 0.024 µM for the second.
